According to patent US20240246942A1, “KINASE INHIBITORS FOR THE TREATMENT OF NEURODEGENERATIVE DISEASES” (priority 2020, published 2024):

Assays:
Test in all cases: biochemical
[1] = molecular target: T1, panel of 374 wild-type kinases (Homo sapiens, UniProt P09619); details: read-out: % Enzyme Activity (relative to DMSO controls), kinase PDGFRb
T1 construct: purchased Reaction Biology Corporation

[2] = molecular target: T2, panel of 374 wild-type kinases (Homo sapiens, UniProt P11309); details: read-out: % Enzyme Activity (relative to DMSO controls), kinase PIM1
T2 construct: purchased Reaction Biology Corporation

[3] = molecular target: T3, panel of 374 wild-type kinases (Homo sapiens, UniProt Q09013); details: read-out: % Enzyme Activity (relative to DMSO controls), DMPK
T3 construct: purchased Reaction Biology Corporation
T3 sequence (Q09013 1-629): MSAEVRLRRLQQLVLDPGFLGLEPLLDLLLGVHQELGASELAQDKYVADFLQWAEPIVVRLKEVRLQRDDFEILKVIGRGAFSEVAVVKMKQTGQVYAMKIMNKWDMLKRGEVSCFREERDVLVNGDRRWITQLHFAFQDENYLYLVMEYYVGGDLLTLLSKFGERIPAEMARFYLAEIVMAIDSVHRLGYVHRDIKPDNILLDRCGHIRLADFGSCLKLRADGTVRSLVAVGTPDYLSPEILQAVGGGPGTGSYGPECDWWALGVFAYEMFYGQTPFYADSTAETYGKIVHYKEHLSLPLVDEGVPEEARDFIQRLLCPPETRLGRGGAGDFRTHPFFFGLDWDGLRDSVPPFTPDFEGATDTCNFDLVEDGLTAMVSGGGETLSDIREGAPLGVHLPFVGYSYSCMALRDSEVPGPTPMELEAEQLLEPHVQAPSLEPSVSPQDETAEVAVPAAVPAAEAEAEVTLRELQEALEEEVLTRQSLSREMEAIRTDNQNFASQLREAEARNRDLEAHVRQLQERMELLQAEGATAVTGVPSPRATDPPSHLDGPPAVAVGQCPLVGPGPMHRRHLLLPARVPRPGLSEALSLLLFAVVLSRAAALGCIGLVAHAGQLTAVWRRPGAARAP

[4] = molecular target: T4, panel of 374 wild-type kinases (Homo sapiens, UniProt Q14164); details: read-out: % Enzyme Activity (relative to DMSO controls), IKKe/IKBKE
T4 construct: purchased Reaction Biology Corporation
T4 sequence (Q14164 1-716): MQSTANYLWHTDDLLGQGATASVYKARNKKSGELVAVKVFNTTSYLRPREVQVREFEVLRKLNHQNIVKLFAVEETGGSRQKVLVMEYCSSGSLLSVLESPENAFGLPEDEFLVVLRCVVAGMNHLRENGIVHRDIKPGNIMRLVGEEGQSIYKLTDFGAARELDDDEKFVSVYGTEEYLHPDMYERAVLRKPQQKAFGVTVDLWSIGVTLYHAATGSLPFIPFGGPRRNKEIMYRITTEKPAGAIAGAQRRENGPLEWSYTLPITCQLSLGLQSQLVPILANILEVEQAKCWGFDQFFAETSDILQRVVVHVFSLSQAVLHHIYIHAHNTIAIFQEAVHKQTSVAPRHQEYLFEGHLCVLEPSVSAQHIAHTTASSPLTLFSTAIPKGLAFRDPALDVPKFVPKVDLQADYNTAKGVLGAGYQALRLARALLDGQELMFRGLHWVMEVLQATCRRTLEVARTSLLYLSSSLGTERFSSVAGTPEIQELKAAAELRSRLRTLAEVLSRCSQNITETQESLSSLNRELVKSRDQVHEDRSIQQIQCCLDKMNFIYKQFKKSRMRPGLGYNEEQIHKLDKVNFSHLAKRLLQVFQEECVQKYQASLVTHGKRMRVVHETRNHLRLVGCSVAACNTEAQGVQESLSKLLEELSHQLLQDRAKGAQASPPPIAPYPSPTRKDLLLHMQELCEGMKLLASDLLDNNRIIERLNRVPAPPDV

[5] = molecular target: T5, panel of 374 wild-type kinases (Homo sapiens, UniProt Q16644); details: read-out: % Enzyme Activity (relative to DMSO controls), MAPKAPK3
T5 construct: purchased Reaction Biology Corporation

[6] = molecular target: T6, panel of 374 wild-type kinases (Homo sapiens, UniProt Q9BZL6); details: read-out: % Enzyme Activity (relative to DMSO controls), kinase PKD2/PRKD2
T6 construct: purchased Reaction Biology Corporation
T6 sequence (Q9BZL6 1-878): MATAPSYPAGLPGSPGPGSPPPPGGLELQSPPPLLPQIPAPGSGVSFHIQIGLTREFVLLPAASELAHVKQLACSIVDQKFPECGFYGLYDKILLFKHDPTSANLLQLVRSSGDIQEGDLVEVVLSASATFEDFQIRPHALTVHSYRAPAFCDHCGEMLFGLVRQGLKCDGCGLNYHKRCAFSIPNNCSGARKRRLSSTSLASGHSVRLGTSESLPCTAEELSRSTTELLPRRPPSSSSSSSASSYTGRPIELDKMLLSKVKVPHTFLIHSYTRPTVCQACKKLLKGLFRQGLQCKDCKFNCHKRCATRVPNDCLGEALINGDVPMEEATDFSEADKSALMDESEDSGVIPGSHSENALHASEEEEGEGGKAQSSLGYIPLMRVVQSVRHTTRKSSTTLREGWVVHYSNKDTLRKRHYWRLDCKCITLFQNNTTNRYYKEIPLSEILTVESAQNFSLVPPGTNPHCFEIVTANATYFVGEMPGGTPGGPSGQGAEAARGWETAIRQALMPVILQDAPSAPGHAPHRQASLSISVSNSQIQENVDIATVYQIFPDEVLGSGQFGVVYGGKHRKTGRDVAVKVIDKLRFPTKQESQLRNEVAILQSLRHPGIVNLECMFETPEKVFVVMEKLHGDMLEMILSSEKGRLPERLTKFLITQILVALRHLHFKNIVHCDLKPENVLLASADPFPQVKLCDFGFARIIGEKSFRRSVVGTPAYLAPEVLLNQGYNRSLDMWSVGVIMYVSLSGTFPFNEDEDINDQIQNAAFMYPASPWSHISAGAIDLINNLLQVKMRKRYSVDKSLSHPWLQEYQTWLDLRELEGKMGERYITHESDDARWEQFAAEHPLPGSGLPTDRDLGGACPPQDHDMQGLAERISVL

T2 sequence (P11309 whole entry): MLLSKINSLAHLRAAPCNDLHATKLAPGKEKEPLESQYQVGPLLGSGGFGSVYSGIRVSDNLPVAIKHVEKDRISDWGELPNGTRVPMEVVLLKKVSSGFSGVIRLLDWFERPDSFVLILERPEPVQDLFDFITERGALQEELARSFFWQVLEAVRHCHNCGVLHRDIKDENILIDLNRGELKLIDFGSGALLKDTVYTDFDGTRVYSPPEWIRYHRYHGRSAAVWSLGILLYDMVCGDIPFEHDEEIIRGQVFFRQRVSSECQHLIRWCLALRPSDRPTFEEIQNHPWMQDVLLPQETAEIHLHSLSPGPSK
T1 sequence (P09619 33-1106): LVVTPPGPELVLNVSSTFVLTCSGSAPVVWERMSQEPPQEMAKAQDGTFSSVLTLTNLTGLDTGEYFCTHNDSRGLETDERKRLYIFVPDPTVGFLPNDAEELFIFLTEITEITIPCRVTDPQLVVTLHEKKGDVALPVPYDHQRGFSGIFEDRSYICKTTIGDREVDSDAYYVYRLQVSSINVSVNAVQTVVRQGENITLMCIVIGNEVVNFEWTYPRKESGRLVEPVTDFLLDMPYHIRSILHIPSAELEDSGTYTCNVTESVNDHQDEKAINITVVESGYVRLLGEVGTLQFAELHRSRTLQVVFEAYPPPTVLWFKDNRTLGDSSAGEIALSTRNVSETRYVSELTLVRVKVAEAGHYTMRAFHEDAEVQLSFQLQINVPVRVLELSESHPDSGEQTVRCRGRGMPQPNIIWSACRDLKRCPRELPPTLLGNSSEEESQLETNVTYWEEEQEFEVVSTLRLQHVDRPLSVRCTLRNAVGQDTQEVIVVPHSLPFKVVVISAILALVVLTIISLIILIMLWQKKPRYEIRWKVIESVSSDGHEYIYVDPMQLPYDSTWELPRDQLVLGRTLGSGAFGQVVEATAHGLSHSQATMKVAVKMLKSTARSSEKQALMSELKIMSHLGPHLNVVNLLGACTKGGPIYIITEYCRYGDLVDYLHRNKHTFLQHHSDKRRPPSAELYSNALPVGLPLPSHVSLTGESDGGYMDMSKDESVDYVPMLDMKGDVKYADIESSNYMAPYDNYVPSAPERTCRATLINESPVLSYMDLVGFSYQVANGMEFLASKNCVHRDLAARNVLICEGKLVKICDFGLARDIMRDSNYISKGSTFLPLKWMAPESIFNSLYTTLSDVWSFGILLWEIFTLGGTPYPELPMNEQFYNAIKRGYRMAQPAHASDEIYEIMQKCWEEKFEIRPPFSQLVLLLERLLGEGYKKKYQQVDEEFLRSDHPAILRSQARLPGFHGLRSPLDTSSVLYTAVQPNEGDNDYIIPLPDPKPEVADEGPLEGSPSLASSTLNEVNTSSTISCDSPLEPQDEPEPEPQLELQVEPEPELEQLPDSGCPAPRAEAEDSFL
T5 sequence (Q16644 whole entry): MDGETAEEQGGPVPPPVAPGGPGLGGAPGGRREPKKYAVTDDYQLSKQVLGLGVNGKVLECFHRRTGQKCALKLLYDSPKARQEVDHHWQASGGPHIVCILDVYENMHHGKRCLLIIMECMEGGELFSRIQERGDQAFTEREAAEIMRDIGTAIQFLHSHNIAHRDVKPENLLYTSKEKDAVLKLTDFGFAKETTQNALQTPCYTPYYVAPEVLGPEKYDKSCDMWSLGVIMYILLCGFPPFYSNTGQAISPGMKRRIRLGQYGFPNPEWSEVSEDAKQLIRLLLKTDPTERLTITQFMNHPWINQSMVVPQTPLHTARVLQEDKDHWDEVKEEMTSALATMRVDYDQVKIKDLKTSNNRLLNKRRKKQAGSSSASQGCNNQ

Row | SMILES | remaining activity at 5 µM [1] [%] | remaining activity at 5 µM [2] [%] | remaining activity at 5 µM [3] [%] | remaining activity at 5 µM [4] [%] | remaining activity at 5 µM [5] [%] | remaining activity at 5 µM [6] [%] | remaining activity at 10 µM ([1]; 10 uM) [%] | remaining activity at 10 µM ([2]; 10 uM) [%] | remaining activity at 10 µM ([3]; 10 uM) [%] | remaining activity at 10 µM ([4]; 10 uM) [%] | remaining activity at 10 µM ([5]; 10 uM) [%] | remaining activity at 10 µM ([6]; 10 uM) [%]
1 | O=C(Nc1cnn(-c2csc(C(=O)NC3COC3)c2)c1)Nc1ccccc1Cl [Compound 17, 4-(4-(3-(2-chlorophenyl)ureido)-1H-pyrazol-1-yl)-N-(oxetan-3-yl)thiophene-2-carboxamide] | 107 | 64.6 | 102 | 110 | 83.5 | 94.9 |  |  |  |  |  | 
2 | O=C(Nc1cnn(-c2csc(C(=O)NC3COC3)c2)c1)Nc1c(F)cccc1Cl [Compound 25, 4-(4-(3-(2-chloro-6-fluorophenyl)ureido)-1H-pyrazol-1-yl)-N-(oxetan-3-yl)thiophene-2-carboxamide] | 101 | 73.3 | 110 | 96.8 | 95.6 | 102 |  |  |  |  |  | 
3 | Cc1sc(C(=O)NC2COC2)cc1-n1cc(NC(=O)Nc2c(F)cccc2Cl)cn1 [Compound 27, 4-(4-(3-(2-chloro-6-fluorophenyl)ureido)-1H-pyrazol-1-yl)-5-methyl-N-(oxetan-3-yl)thiophene-2-carboxamide] |  |  |  |  |  |  | 97.9 | 95.1 | 95.2 | 116 | 110 | 95.7
